Experimental data: patent US20220168193A1, “FLEXIBLE METAL PATCH HAVING ANTIOXIDANT ACTIVITY AND BRIGHTENING EFFECT AND METHOD FOR USING SAME” (LABNPEOPLE CO., LTD., priority 2019, published 2022)

Assay: DPPH free radical scavenging activity test
Type: biochemical
Conditions: for DPPH free radical scavenge activity (%) (mean ± standard deviation): 0.2 mM DPPH 1:1, 30 min
Protocol: To evaluate the DPPH free radical scavenging activity of the biodegradable metal of the present invention, samples were provided to the Korea Testing & Research Institute and the test thereof was performed in a manner described below by the Korea Testing & Research Institute at the request of the inventors.
a. Test substance • Magnesium patch with a purity of 95% or more (See FIG. 1 in which the patch is provided with microneedles that are not bent). • The sample used for the test is a sheet shape (dimensions: 2.6 mm×2.4 mm, thickness 0.1 t) made of Mg with a purity of 95% or more and including unavoidable impurities generated during manufacturing thereof.
b. Positive control • L-ascorbic acid: Sigma-Aldrich Corporation, Lot No. SLBR2586V
c. Etc. • 2,2-Diphenyl-1-picrylhydrazyl (DPPH): Sigma-Aldrich Corporation, Lot No. STBH0044 • Methanol: JINSEI, Lot No. 2016G2012
a. Preparation of test substance: The provided test substance was used without conversion of purity. Methanol was used to adjust the concentration.
After weighing L-ascorbic acid, it was prepared to have a predetermined concentration using methanol.
DPPH was prepared to have a concentration of 0.2 mM using methanol.
In a 96-well plate, each of the preparations (test substance and positive control substance) having different concentrations was mixed with a combination of 0.2 mM DPPH and methanol in a mixing ratio of 1:1.
After reacting at room temperature for 30 minutes in a light-shielding state, centrifugation was performed to obtain a supernatant, and absorbance was measured at a wavelength of 517 nm.
The free radical scavenger activity (%) of DPPH was calculated using Equation 1 below.
DPPH radical scavenging activity(%)=1−(A/B)×100 <Equation 1>
In Equation 1, A is the absorbance of the test substance, and B is the absorbance of the blank sample.
The result of each test was measured three times to obtain the mean value and standard deviation, and statistical analysis was performed using the SPSS statistical program (Ver. 19.0). First, after performing Levene's test, a one-way ANOVA test was performed. When significance was confirmed among the test groups, a post-hoc test was performed depending on the presence or absence of homogeneity of variances (when the variances are homogeneous, Duncan's multiple test was performed whereas when the variances were heterogeneous, Dunnett's T3 was performed).

Question: With `O=C1O[C@H]([C@@H](O)CO)C(O)=C1O` [L-ascorbic acid] as the compound, how does the “DPPH free radical scavenge activity (%) (mean ± standard deviation)” value (concentration 0.0005%) read?
Answer: 20.96%

Question: And the “DPPH free radical scavenge activity (%) (mean ± standard deviation)” value (concentration 0.001%)?
Answer: 40.38%

Question: And the “DPPH free radical scavenge activity (%) (mean ± standard deviation)” value (concentration 0.0015%)?
Answer: 65.57%

Question: What about the “DPPH free radical scavenge activity (%) (mean ± standard deviation)” value (concentration 0.002%) of the same compound?
Answer: 83.24%

Question: What about the “IC50 (concentration at which 50% activity is exhibited), DPPH scavenging” value (methanol solution) of the same compound?
Answer: 0.0012%
